According to PubChem BioAssay (NCI):
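Five concentrations, 48 hours, 96-well plates. Abbreviation: GI50, concentration required for 50% inhibition of growth. TGI is the concentration that stops growth completely.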

How the values were obtained:
Assay in all cases: DTP human tumour cell line panel, 48 h; in the data active = GI50 below about 0.43 µM; inactive = the rest
[1] = tested on: MALME-3M melanoma
[2] = tested on: HOP-62 NSCLC
[3] = tested on: SK-MEL-5 melanoma
[4] = tested on: HCT-15 colon
[5] = tested on: PC-3 prostate
[6] = tested on: U251 CNS
[7] = tested on: SK-MEL-28 melanoma
[8] = tested on: OVCAR-5 ovarian
[9] = tested on: T-47D breast
[10] = tested on: NCI-H226 lung
[11] = tested on: SW-620 colon
[12] = tested on: RPMI-8226 leukemia
[13] = tested on: NCI-H522 lung
[14] = tested on: K-562 leukemia
[15] = tested on: OVCAR-8 ovarian
[16] = tested on: HS 578T breast
[17] = tested on: OVCAR-4 ovarian
[18] = tested on: SF-539 CNS
[19] = tested on: SK-MEL-2 melanoma
[20] = tested on: SNB-19 CNS
[21] = tested on: SN12C renal
[22] = tested on: SK-OV-3 ovarian
[23] = tested on: EKVX NSCLC
[24] = tested on: DU-145 prostate
[25] = tested on: SF-268 CNS
[26] = tested on: UACC-62 melanoma
[27] = tested on: NCI-H460 lung
[28] = tested on: UACC-257 melanoma
[29] = tested on: LOX IMVI melanoma
[30] = tested on: ACHN renal
[31] = tested on: CAKI-1 renal
[32] = tested on: HT29 colon
[33] = tested on: BT-549 breast
[34] = tested on: CCRF-CEM leukemia
[35] = tested on: HOP-92 NSCLC
[36] = tested on: MDA-MB-435
[37] = tested on: NCI-H23 lung
[38] = tested on: SNB-75 CNS
[39] = tested on: RXF 393 renal
[40] = tested on: A549 NSCLC
[41] = tested on: MDA-MB-231 breast
[42] = tested on: MCF7 breast
[43] = tested on: UO-31 renal
[44] = tested on: SF-295 CNS
[45] = tested on: A498 renal
[46] = tested on: TK-10 renal
[47] = tested on: NCI/ADR-RES ovarian
[48] = tested on: HCT-116 colon
[49] = tested on: IGROV1 ovarian
[50] = tested on: MOLT-4 leukemia
[51] = tested on: KM12 colon
[52] = tested on: HL-60(TB) leukemia
[53] = tested on: OVCAR-3 ovarian
[54] = tested on: COLO 205 colon
[55] = tested on: M14 melanoma
[56] = tested on: SR leukemia
[57] = tested on: 786-0 renal

C[C@@H](NC(=O)Cc1cc(F)cc(F)c1)C(=O)N[C@@]1(C)N=C(c2ccccc2)c2ccccc2N(C)C1=O
> 94.1 µM: TGI [14]
> 67.7 µM: TGI [35]
10.5 µM: TGI [12]
50.1 µM: TGI [50]
> 86.6 µM: TGI [55]
> 96.6 µM: TGI [41]
> 56.8 µM: TGI [31]
97.5 µM: TGI [21]
> 66.6 µM: TGI [9]
> 89 µM: TGI [26]
42.6 µM: TGI [45]
71.9 µM: TGI [10]
> 22.7 µM: TGI [56]
> 100 µM: TGI [1] | TGI [2] | TGI [3] | TGI [4] | TGI [5] | TGI [6] | TGI [7] | TGI [8] | TGI [11] | TGI [13] | TGI [15] | TGI [16] | TGI [17] | TGI [18] | TGI [19] | TGI [20] | TGI [22] | TGI [24] | TGI [25] | TGI [27] | TGI [28] | TGI [29] | TGI [30] | TGI [32] | TGI [34] | TGI [36] | TGI [37] | TGI [38] | TGI [39] | TGI [40] | TGI [42] | TGI [43] | TGI [44] | TGI [48] | TGI [49] | TGI [51] | TGI [53] | TGI [54] | TGI [57]
inactive: GI50 [1] > 60.8 µM | GI50 [2] 64.7 µM | GI50 [3] 35.2 µM | GI50 [4] > 78.1 µM | GI50 [5] 25.6 µM | GI50 [6] > 84.8 µM | GI50 [7] > 100 µM | GI50 [8] > 83.5 µM | GI50 [10] 24 µM | GI50 [11] 94.4 µM | GI50 [12] 2.11 µM | GI50 [13] 69.2 µM | GI50 [14] 32.6 µM | GI50 [15] 65.1 µM | GI50 [16] 24.7 µM | GI50 [17] > 100 µM | GI50 [18] > 56 µM | GI50 [19] > 100 µM | GI50 [20] > 100 µM | GI50 [21] 32 µM | GI50 [22] > 100 µM | GI50 [23] 30.2 µM | GI50 [24] 30.2 µM | GI50 [25] 30.9 µM | GI50 [26] 32.4 µM | GI50 [27] 40.4 µM | GI50 [28] 37.5 µM | GI50 [29] 45.7 µM | GI50 [30] > 84.5 µM | GI50 [31] 11.7 µM | GI50 [32] 49.4 µM | GI50 [33] 9.6 µM | GI50 [34] 24.6 µM | GI50 [35] 19.8 µM | GI50 [36] 38.9 µM | GI50 [37] 43.4 µM | GI50 [38] > 95.3 µM | GI50 [39] 30.7 µM | GI50 [40] 66.1 µM | GI50 [41] 15.9 µM | GI50 [42] 36.5 µM | GI50 [43] 30.5 µM | GI50 [44] 42.8 µM | GI50 [45] 1.13 µM | GI50 [46] 31.2 µM | GI50 [47] 31.9 µM | GI50 [48] 32.2 µM | GI50 [49] > 65.6 µM | GI50 [50] 11.7 µM | GI50 [51] 41.3 µM | GI50 [52] 10.6 µM | GI50 [53] 30 µM | GI50 [54] 47.2 µM | GI50 [55] 26 µM | GI50 [56] 2.5 µM | GI50 [57] > 100 µM
> 90.7 µM: TGI [47]
> 85.8 µM: TGI [23]
> 66.4 µM: TGI [33]
> 88.8 µM: TGI [46]
> 55.4 µM: TGI [52]
